The values that follow come from PMC9415161, “PEG-Bottlebrush Stabilizer-Based Worm-like Nanocrystal Micelles with Long-Circulating and Controlled Release for Delivery of a BCR-ABL Inhibitor against Chronic Myeloid Leukemia (CML)” (Pharmaceutics, 2022).

Like-named read-outs stand apart in the source and are kept apart here.

On the set-up of series [1]: method as in PMID 26789553. Conditions: 50 mg/kg, P.O.; cited from earlier work.
A short description of series [2]: In vivo pharmacokinetics after tail vein injection. Conditions: male, Sprague-Dawley, rat, plasma, rats, IV 1 mg/kg, n = 3. As to the method:
The in vivo profiling of free 053, 053-F127 NCs, and 053-PPP NC micelles were evaluated and compared using PK tests in male Sprague Dawley rats with individual weights of ~200 g (from the Laboratory Animal Center of Anhui Medical University, Hefei, China), approved by the Animal Ethics Committee of Hefei Institutes of Physical Science, Chinese Academy of Sciences, Hefei, China (approval code: DW-2019-20). The rats were housed in an air-conditioned room at 23 ± 2 °C and humidity of ~50%. After acclimatizing the facilities for 1 week, the rats were randomly divided into three groups (three per group): free 053, 053-F127 NC, and 053-PPP NC micelle. The rats were fasted for 12 h prior to drug administration. Free 053 (dissolved in 10% v/v DMSO in glucose 5%), 053-F127 NC, and 053-PPP NC micelle suspensions were administrated by tail vein injection at a dose of 1 mg/kg. Blood samples were collected in heparinized tubes at 2, 5, 15, 30 min and 1, 2, 4, 6, 9, 12, and 24 h (for all three groups). For the 053-PPP NC micelle group, blood was sampled at another three time points of 72, 96, and 120 h. The collected fresh blood samples were immediately processed in accordance with the following protocol: (1) collection of 100 μL of plasma by centrifuging the blood samples for 3 min at 6000 rpm and 4 °C, followed by storage at –80 °C for further analysis; (2) 20 μL of 200 ng/mL of caffeine (as an internal standard solution) was added to 100 μL of each plasma sample; (3) 400 μL of methanol was applied, vortexed for 5 min, and centrifuged at 14,000 rpm for 10 min; (4) the collected supernatants were quantified via LC-MS/MS analysis by loading 5 μL of supernatant. The collected data were analyzed by the non-compartment model using WinNonlin 8.1 software (Pharsight Corporation, Mountain View, CA, USA) to elucidate the PK parameters.

The test system of series [3] is K562 cells. The series can be described thus: In vitro cell toxicity assay (CCK8). In kind it is cell-based. Particulars: Homo sapiens, K562, 72 h. The method, then: The K562 cell line used in this work was ordered from the American Type Culture Collection (ATCC, Manassas, VA, USA). The K562 cells were cultured in RPMI 1640 with 10% fetal bovine serum (FBS) (VivaCell, Shanghai, China) and 1% penicillin/streptomycin in a humidified incubator at 37 °C with 5% CO2. Firstly, K562 cells were seeded into 96-well plates with 100 μL of 1640 medium containing 3000 cells per well, and were incubated at 37 °C under 5% CO2. Subsequently, the cells in each well were treated with a series of concentrations of free 053 in DMSO, 053-F127 NCs, and 053-PPP NC micelles, respectively. Cell viability was determined using the Cell Counting Kit-8 (CCK8) (Best Bio, Shanghai, China) based on the manufacturer’s instructions. Subsequently, 10 μL of CCK8 solution was added to each well, and the absorbance of each well at a wavelength of 450 nm was measured using a microplate reader (iMARK, Bio-Rad, Hercules, CA, USA) after further incubation for 1 h at 37 °C. The absorbance was normalized and plotted as a function of drug concentration. The GI50 values were calculated using GraphPad Prism 8.0 (San Diego, CA, USA).

The subject of series [4] is K562 cells. Set-up: method as in PMID 26789553. Conditions: against K562 cells; cited from earlier work.
Details of series [5]: method as in PMID 26789553. Particulars: cited from earlier work.
The test system of the next series is K562 xenograft. The series can be described thus: In vivo anticancer efficacy in K562 xenograft mouse model. Particulars: 40 mg/kg QD, PO, n = 5. Set-up: species or system Bal B/c nude mice. The method, then: Female Bal B/c nude mice were used to establish K562 xenograft mouse models according to the protocol described above. When the tumors reached 150–200 mm^3, the mice were randomly divided into seven groups (n = 5) for the evaluation of antitumor efficacy in vivo at 40 mg/kg: Vehicle, free 053 QD (Once a day, PO), 053-F127 NC QD (IV), 053-F127 NC Q2D (Once every other day, IV), 053-PPP NC QD (IV), 053-PPP NC Q2D (IV), and 053-PPP NC Q4D (once every 4 days, IV). During the treatment, body weight and tumor growth were measured daily. Tumor volumes (V) were calculated as follows (Equation (3)):V (mm^3) = [(W^2 × L)/2],(3) where width (W) and length (L) are defined as the lower and higher of two measurements, respectively. When the tumors of the vehicle group reached the limit of the animal ethical regulations, the test was stopped. All the mice were euthanized, and major tissues/organs were harvested for immunohistochemical (IHC) analysis, including HE, Ki-67, and TUNEL staining.

One may read the AUC(0-inf) as the area under the concentration-time curve extrapolated to infinity. Read a low AUC(0-inf) as low exposure. A word on the AUC(0-t): it is the area under the concentration-time curve up to a stated or last time point. The term Cmax denotes the highest concentration seen after dosing. The Tmax is the time from dosing to the highest level. One may read the clearance as the volume of plasma or blood freed of the substance per unit of time. In general, half-life refers to the time in which the quantity being followed falls by half. Low readings indicate rapid decline, high ones slow decline. As usually defined, the GI50 is the concentration giving 50% growth inhibition. With `CNc1ncncc1C(=O)Nc1cc(NC(=O)c2cccc(C(F)(F)F)c2)ccc1C` [Free 053, N-(2-methyl-5-(3-(trifluoromethyl)benzamido)phenyl)-4-(methylamino)pyrimidine-5-carboxamide], the TGI in series [1] is on record as 48.3%. Also, in series [2], the AUC(0-inf) was 509 ± 132 ng·h/mL, the AUC(0-t) was 499 ± 132 ng·h/mL, the C0 was determined as 555 ± 142 ng/mL and the highest level (Cmax) was 364 ± 42 ng/mL. Also, in series [2], the Tmax came to 1.8 min, the clearance is 34.3 mL/min/kg and the half-life was 2.02 ± 0.42 h. The MRT last in series [2] (read-out: MRT0–t) came out at 2.54 ± 0.55 h. The MRT inf in series [2] (read-out: MRT0–∞) is 2.78 ± 0.57 h. Moreover, the Vd in series [2] (read-out: Vz) was determined as 5.87 ± 1.33 L/kg. The compound also returned a GI50 in the series on K562 cells [3] of 5.95 ± 1.95 nM. The GI50 in the series with K562 cells [4] is around 14 nM. The oral bioavailability in series [5] is given as ~ 24%. In the series on K562 xenograft, the “tumor inhibition efficacy compared with the vehicle group” value is reported as “did not show a significant difference”.
